Measured values as given in PubChem BioAssay AID1996.
In brackets after ≈: the same amount, converted by molar mass.

conditions: buffer; pH 7.4; 200.0 µM

| Structure (SMILES) | solubility kinetic [µg/mL] |
| --- | --- |
| CC(NC(=O)c1ccco1)c1nc(-c2ccccc2Cl)no1 (stereo not given) | > 47.7 |
| CCCCCC(=O)NC(=S)NC1C2CC3CC(C2)CC1C3 (stereo not given) | 28.3 (≈ 91.7 µM) |
| CN(C)c1ccc(C(CN)c2c[nH]c3ccccc23)cc1 (stereo not given) | 30.2 (≈ 108 µM) |
| Cc1cc(/C=C/C(=O)O)c(C)n1-c1ccc(Cl)cc1 | > 41.4 |
| CNC(=O)C(=O)Nc1cc2c3c(c1)CCC(=O)N3CCC2 | 19 (≈ 66.1 µM) |
| CN(C(=S)NC(=O)c1ccc(F)cc1)C1CCCCC1 | 8.8 (≈ 29.9 µM) |
| Nc1ccc(-c2ncc(-c3ccccc3)o2)cc1 | 4.3 (≈ 18.2 µM) |
| COC(=O)c1cc(S(=O)(=O)NC2CCCCC2)cn1C | 42 (≈ 140 µM) |
| COc1ccc(C(=O)N2CCC(C(=O)NC3CC3)CC2)cc1 | > 45.4 |
| COc1ccc(NC2c3ccccc3C(=O)N2c2ccccn2)cc1 (stereo not given) | 34.1 (≈ 103 µM) |
| S=C(Nc1ccccc1Oc1ccccc1)NC1CCCC1 | 5 (≈ 16 µM) |
| COc1ccc(NC(=S)NC2CCCCC2)c(OC)c1 | > 44.2 |
| OCCCc1nc2ccccc2n1CCCCOc1ccccc1 | 44.6 (≈ 137 µM) |
| Cc1ccccc1Nc1nc(N)nc(CSc2nncn2C)n1 | > 49.3 |
| O=C(c1ccncc1)N1CCN(S(=O)(=O)c2ccccc2F)CC1 | > 52.4 |
| O=C1OC(CCl)CN1Cc1c(Cl)cccc1Cl (stereo not given) | 41.9 (≈ 142 µM) |
| COc1ccc(-c2onc(C)c2-c2ccc3c(c2)OCCO3)c(O)c1 | 2.6 (≈ 7.66 µM) |
| O=C(NCc1cccnc1)C1CCN(S(=O)(=O)c2cc([N+](=O)[O-])ccc2Cl)CC1 | > 65.8 |
| C=CCOC(=O)C1=C(C)NC(C)=C(C(=O)OCC=C)C1c1ccco1 | 4.5 (≈ 13.1 µM) |
| Cc1cc(NC(=O)c2ccc3nccnc3c2)ccc1Br | 4.5 (≈ 13.2 µM) |
| COc1cc(NC(=O)COC(=O)c2cc(S(=O)(=O)N3CCOCC3)ccc2F)cc(OC)c1 | 34.2 (≈ 70.9 µM) |
| CC(C)(C)Nc1nc(Cl)nc(NCCN2CCOCC2)n1 | 46.1 (≈ 146 µM) |
| Cn1c(=O)c2c(O)c([N+](=O)[O-])c(=O)n(C)c2n(C)c1=O | > 42.3 |
| Cc1ccc(C(=O)OC(C)CN2CCN(C)CC2)cc1.Cl (stereo not given) | 40.8 |

| Structure (SMILES) | solubility kinetic [µg/mL] |
| --- | --- |
| O=C(O)C1C2CCC(O2)C1C(=O)Nc1ccc(F)c(F)c1 (stereo not given) | 40.5 (≈ 136 µM) |
| Oc1cccc2ccc(/C=C/c3ccccc3Cl)nc12 | < 0.6 |
| CCOP(=O)(c1ccccc1)C(O)c1ccc([N+](=O)[O-])cc1 (stereo not given) | > 48.2 |
| COc1ccc(Br)c(C(=O)OCC(=O)NC(=O)NC2CCCC2)c1 | 19.5 (≈ 48.8 µM) |
| COc1ccc2nc(C)cc(SCC(=O)N3CCCCC3)c2c1 | > 49.6 |
| COc1ccc(-c2csc(-c3[nH]cnc3N)n2)cc1 | 18.1 (≈ 66.5 µM) |
| Cc1ccc(S(=O)(=O)N2CCC3(CC2)OCCO3)c(C)c1 | > 46.7 |
| CN1C(=O)N(c2ccc(Cl)cc2)C(C)(O)CC1(C)C (stereo not given) | > 42.4 |
| CCOc1nc(-c2ccccc2)c2cc(C)ccc2n1 | 4.8 (≈ 18.2 µM) |
| COc1ccc(/C=C/C(=O)OCC(=O)NC2CCCC(C)C2C)c(OC)c1 (stereo not given) | 5 (≈ 13.3 µM) |
| CCc1nc(NCCO)c(C#N)c2c1CCCC2 | 35.5 (≈ 145 µM) |
| COc1ccc(Nc2ncnc3sccc23)cc1OC | 36.9 (≈ 128 µM) |
| Cc1ccc(NC(=O)NC2CCCCCCC2)c(C)c1 | < 0.3 |
| COc1ccc(Nc2ccc([N+](=O)[O-])c3nonc23)c(OC)c1 | < 0.2 |
| O=S(=O)(/C=C/c1ccccc1)N1CCNCC1 | > 37.8 |
| COc1ccc([N+](=O)[O-])cc1NC(=O)C1CCCNC1=O (stereo not given) | 19.1 (≈ 65.1 µM) |
| O=Cc1ccc(OCCCOc2cccc3cccnc23)cc1 | 37.7 (≈ 123 µM) |
| COc1ccccc1/C=C/C(=O)NC(=S)N1CCN(C)CC1 | > 47.9 |
| O=[N+]([O-])c1ccccc1S(=O)(=O)NC1CCCCCCC1 | 20.1 (≈ 64.3 µM) |
| Cc1ccc(N2C(=O)C(Cl)=C(N3CCCCCC3)C2=O)c(C)c1 | 4.5 (≈ 13.5 µM) |
| COc1ccc(CNCc2ccc(C)cc2)c(OC)c1.O=C(O)C(=O)O | 40.5 |
| CC1(C)CC(=O)C=C(Nc2ccccc2)C1 | > 32.3 |
| COc1ccc2c(c1)-c1nc(/N=C/c3c(O)ccc4ccccc34)sc1CC2 | 27.1 (≈ 70.1 µM) |
| Cc1ccc(C(C)C)c(OCC#CCN2CCCC2)c1.O=C(O)C(=O)O | 25.7 |

| Structure (SMILES) | solubility kinetic [µg/mL] |
| --- | --- |
| Cc1cc(C)cc(NC(=O)NC2CCCCCCC2)c1 | 1 (≈ 3.64 µM) |
| NC(=O)CSc1nnc(NC(=O)c2ccc(Br)o2)s1 | > 54.5 |
| COc1ccc(CCCc2n[nH]c(=S)o2)cc1C | > 39.7 |
| O=C(O)C(Cc1ccccc1)N=C(NS(=O)(=O)c1ccccc1)c1ccccc1 (stereo not given) | > 61.3 |
| CCCCC(=O)Nc1cc(OC)c(NC(=S)NC)cc1OC | > 48.8 |
| COc1ccc(/C(C)=N/N2C(C)CCCC2C)c(OC)c1 (stereo not given) | > 43.6 |
| Cl.O=C(OCCN1CCOCC1)c1ccccc1Cl | > 45.9 |
| COc1ccccc1-n1cc(-c2ccc(C)cc2)[nH]c1=S | 1 (≈ 3.37 µM) |
| CCOC(=O)c1ccc(NC(=O)N2C[C@@H]3C[C@@H](C2)c2cccc(=O)n2C3)cc1 | > 57.2 |
| NC(=O)CN1CCN(c2cccc(Cl)c2)CC1 | 33.9 (≈ 134 µM) |
| COc1ccc(NC2c3ccccc3C(=O)N2c2cccnc2)cc1 (stereo not given) | > 49.7 |
| COc1cccc(C(=O)N2CCN(C(=O)C3CC3)CC2)c1 | 40.7 (≈ 141 µM) |
| CN(C(=O)CSc1nc2ccccc2c(=O)n1C)C1CCS(=O)(=O)C1 (stereo not given) | > 57.2 |
| NC(=O)C1CCCN(C(=O)CCCNC(=O)c2ccc(Cl)cc2)C1 (stereo not given) | > 52.8 |
| O=C(O)c1cccc(OCCN2CCCC2=O)c1 | 34.6 (≈ 139 µM) |
| O=C(Nc1nc2ccccc2[nH]1)NC1CCCCC1 | 1.6 (≈ 6.19 µM) |
| NC(=O)CCN1CCC(c2nc3ccccc3s2)CC1 | 35.3 (≈ 122 µM) |
| COCCNC(=O)c1cc2cc3ccc(OC)cc3nc2o1 | 42.1 (≈ 140 µM) |
| O=C(CCC(=O)N1CCCC1)Nc1ccc(Cl)c(Cl)c1 | 5.6 (≈ 17.8 µM) |
| Cc1cc2nsnc2c(S(=O)(=O)N2CCN(C)CC2)c1C | 47.9 (≈ 147 µM) |
| COc1ccc(CN2CCc3ccccc3C2)cc1Br | 11.3 (≈ 34 µM) |
| O=C(NC(CO)C(=O)OCc1ccccc1)OCc1ccccc1 (stereo not given) | > 49.4 |
| CC(C)(C)c1ccc(-c2noc(CCC(=O)N3CCOCC3)n2)cc1 | 44.2 (≈ 129 µM) |

Next, values leading:

| solubility kinetic [µg/mL] | Structure (SMILES) |
| --- | --- |
| > 40.5 | O=C(NCc1ccncc1)C(=O)NCc1ccncc1 |
| 19.2 (≈ 56.4 µM) | O=C(NCc1cccnc1)Nc1ccc(Br)cc1Cl |
| 35.6 (≈ 120 µM) | COc1ccc(CCNC(=O)CCCc2ccccc2)cc1 |
| 6.2 (≈ 21.9 µM) | COc1cccc(CNc2nc3ccccc3n2C)c1O |
| > 46.5 | O=C(OCC(=O)c1ccc(Cl)cc1Cl)c1ccccn1 |
| > 43.6 | CCCNC(=O)C1CC(=O)N(c2ccc(OCC)cc2)C1 (stereo not given) |
| 26.8 (≈ 118 µM) | CCc1ccc(OC(=O)c2cccnc2)cc1 |
| > 37.5 | Cc1cc(SCc2ccccc2F)nc(=O)[nH]1 |
| > 41.6 | CCCC(=O)OCC(=O)Nc1ccc2[nH]c(=O)[nH]c2c1 |
| > 49.8 | CCCCC(=O)Nc1cccc(NC(=O)c2cccnc2Cl)c1 |
| 12.9 (≈ 39 µM) | COc1ccccc1C(=O)CN1C(=O)NC2(CCCCCC2)C1=O |
| 6.3 (≈ 16.5 µM) | CC(=O)c1cc2c(cc1NC(=O)C1CN(C(C)=O)c3ccccc3O1)OCO2 (stereo not given) |
| 56.5 (≈ 123 µM) | O=C(COC(=O)Cc1cccs1)Nc1cc(S(=O)(=O)N2CCOCC2)ccc1Cl |
| 16.2 (≈ 52.7 µM) | O=C(CS(=O)(=O)c1ccc(F)cc1)NCc1ccccc1 |
| 12.6 (≈ 36.5 µM) | CN1CCN(c2ccc(CNS(=O)(=O)c3ccccc3)cc2)CC1 |
| 8.2 (≈ 20.7 µM) | Cc1ccc(S(=O)(=O)N2CCOCC2)cc1NC(=O)c1ccc(F)cc1F |
| > 45.9 | CCN(Cc1ccncc1)C(=S)Nc1ccc(Cl)cc1 |
| < 0.4 | COc1ccc(OCC(=O)Nc2ccc(N3CCC(C)CC3)cc2)cc1 |
| < 0.3 | O=C(Nc1ccc(Cl)cc1)c1ccc(-c2ccccn2)s1 |
| > 50.5 | Cn1c(=O)n(Cc2ccccc2Cl)c(=O)c2c1[nH]c(=S)n2C |
| > 40.4 | CC(C)n1cnc2cc(NC(=O)c3ccco3)ccc21 |
| 30.6 (≈ 130 µM) | Cn1ccsc1=NC(=O)c1ccc(=O)[nH]c1 |
| 11.2 (≈ 36.1 µM) | CC(C(=O)Nc1ccccc1)N1CCN(c2ccccn2)CC1 (stereo not given) |
| 2.7 (≈ 9.16 µM) | O=C(NC(=S)NCc1ccco1)c1cccc(Cl)c1 |
| 27.4 (≈ 113 µM) | CCOc1cccc(CNCc2ccncc2)c1 |

| solubility kinetic [µg/mL] | Structure (SMILES) |
| --- | --- |
| 41.5 (≈ 130 µM) | Cc1ccc(S(=O)(=O)N(C)CC(=O)Nc2cccnc2)cc1 |
| > 44.2 | CC(=O)Nc1ccc(C(=O)N2CCCc3ccccc32)cc1 |
| 10.7 (≈ 32.8 µM) | NS(=O)(=O)c1cccc(NC(=O)Nc2ccc(Cl)cc2)c1 |
| 48.8 (≈ 143 µM) | Cc1cc(C)c(NC(=S)N(CCc2ccncc2)C(C)C)c(C)c1 |
| < 0.4 | COCCn1c(C)cc(O)c(C(=O)Nc2cccc(Cl)c2)c1=O |
| 19.7 (≈ 60.5 µM) | COc1ccc(N2CC(NC(=O)Nc3ccccc3)CC2=O)cc1 (stereo not given) |
| > 42.9 | Cc1cccc(C(=O)OCCN2CCOCC2)c1.Cl |
| < 0.4 | Cc1ccc(C2CCN(C(=S)Nc3cccc(Cl)c3)C2)cc1 (stereo not given) |
| 13.9 (≈ 45.6 µM) | S=C(NCCc1ccccc1)NCc1cccc(Cl)c1 |
| > 51.2 | CC(C(=O)NCc1ccccc1)N1CCN(c2ccc(F)cc2)CC1 (stereo not given) |
| 30.6 (≈ 92.1 µM) | Cc1ccc(CNS(=O)(=O)c2ccc(C(F)(F)F)cc2)n1C |
| > 37.2 | CCOC(=O)CNC(=O)c1ccc(Cl)s1 |
| 4.8 (≈ 11.3 µM) | O=C(Nc1cc(C(=O)N2CCN(c3ccccc3)CC2)ccc1Cl)c1cccs1 |
| 21.5 (≈ 74.3 µM) | O=C(COc1ccc2c(c1)OCO2)Nc1cccc(F)c1 |
| 11.5 (≈ 34.4 µM) | Cc1noc(C)c1CSc1ccccc1C(=O)OC(C)C(N)=O (stereo not given) |
| 18.7 (≈ 61.8 µM) | CCc1cccc(CC)c1NC(=O)CNCc1cccs1 |
| 2.1 (≈ 4.9 µM) | O=C(NCC1CCCO1)c1cccc(S(=O)(=O)Nc2cccc(C(F)(F)F)c2)c1 (stereo not given) |
| > 50.6 | CC1CC(C)(C)NC(=S)N1CCCC(=O)Nc1ccccc1F (stereo not given) |
| > 44.2 | COC(=O)c1nn(-c2cccc(Cl)c2)cc(OC)c1=O |
| > 46.7 | CCCCn1c(CCNC(=O)c2ccco2)nc2ccccc21 |
| 2.6 (≈ 7.32 µM) | CN(C)c1cccc(C(=O)OCC(=O)NC(=O)NCc2ccccc2)c1 |
| 53.6 (≈ 122 µM) | COC(=O)C1CCN(C(=O)c2ccc(Cl)c(S(=O)(=O)NCc3ccco3)c2)CC1 |
| 34.9 (≈ 123 µM) | COc1ccc(CCC(C)N(C)Cc2ccccc2)cc1 (stereo not given) |
| > 42.1 | COc1ccccc1Cn1c(C(C)C)nc2ccccc21 |
